Tests used:
Nitric oxide synthase 1 = Nitric oxide synthase 1 (Rattus norvegicus, UniProt P29476); experiment: Inhibition of recombinant rat nNOS assessed as conversion of L-arginine to citrulline after 30 mins
Nitric oxide synthase 3 = Nitric oxide synthase 3 (Homo sapiens, UniProt P29474); experiment: Inhibition of eNOS (unknown origin)
[1] = Selectivity ratio of IC50 for eNOS (unknown origin) to IC50 for recombinant rat nNOS
[2] = Drug metabolism in human liver microsomes after 20 mins; assay type: ADME; settings: read-out: Drug metabolism

Sequence of Nitric oxide synthase 1 (P29476 whole entry): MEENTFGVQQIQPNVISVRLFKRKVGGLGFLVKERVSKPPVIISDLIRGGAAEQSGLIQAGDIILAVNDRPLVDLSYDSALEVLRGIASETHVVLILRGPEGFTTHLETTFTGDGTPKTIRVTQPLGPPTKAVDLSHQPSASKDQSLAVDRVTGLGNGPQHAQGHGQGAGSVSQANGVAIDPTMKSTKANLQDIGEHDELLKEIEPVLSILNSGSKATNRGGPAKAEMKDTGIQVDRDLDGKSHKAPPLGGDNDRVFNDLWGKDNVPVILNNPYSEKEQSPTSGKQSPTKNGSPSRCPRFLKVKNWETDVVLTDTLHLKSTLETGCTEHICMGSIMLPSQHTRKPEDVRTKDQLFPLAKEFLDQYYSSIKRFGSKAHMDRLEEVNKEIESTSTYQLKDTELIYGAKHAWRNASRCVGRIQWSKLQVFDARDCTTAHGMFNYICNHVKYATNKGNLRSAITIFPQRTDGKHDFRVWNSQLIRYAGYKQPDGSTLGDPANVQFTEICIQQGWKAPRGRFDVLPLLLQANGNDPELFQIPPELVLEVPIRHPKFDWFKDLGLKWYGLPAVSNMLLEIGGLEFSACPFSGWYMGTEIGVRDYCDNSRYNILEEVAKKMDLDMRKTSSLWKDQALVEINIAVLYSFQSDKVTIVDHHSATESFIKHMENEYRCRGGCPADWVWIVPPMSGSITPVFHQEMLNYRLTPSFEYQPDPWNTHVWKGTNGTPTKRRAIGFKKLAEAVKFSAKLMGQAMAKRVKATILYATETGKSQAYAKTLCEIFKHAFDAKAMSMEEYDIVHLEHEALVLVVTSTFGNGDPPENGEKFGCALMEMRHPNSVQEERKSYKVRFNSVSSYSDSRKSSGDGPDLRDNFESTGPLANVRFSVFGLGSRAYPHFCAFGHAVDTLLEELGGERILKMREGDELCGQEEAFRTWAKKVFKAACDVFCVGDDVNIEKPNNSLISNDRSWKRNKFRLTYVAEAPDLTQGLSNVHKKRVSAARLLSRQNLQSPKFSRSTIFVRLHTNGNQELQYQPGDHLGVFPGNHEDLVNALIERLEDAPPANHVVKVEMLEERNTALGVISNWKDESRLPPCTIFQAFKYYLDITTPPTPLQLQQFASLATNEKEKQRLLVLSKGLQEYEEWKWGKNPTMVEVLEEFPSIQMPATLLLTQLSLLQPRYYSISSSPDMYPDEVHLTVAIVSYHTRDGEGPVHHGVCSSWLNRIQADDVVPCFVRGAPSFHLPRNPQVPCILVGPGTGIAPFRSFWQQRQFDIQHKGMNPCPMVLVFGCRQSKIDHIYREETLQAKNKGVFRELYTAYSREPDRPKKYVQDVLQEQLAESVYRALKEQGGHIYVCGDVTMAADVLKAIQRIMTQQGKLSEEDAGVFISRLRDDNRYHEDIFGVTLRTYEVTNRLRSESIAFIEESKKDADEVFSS
Sequence of Nitric oxide synthase 3 (P29474 whole entry, looked up): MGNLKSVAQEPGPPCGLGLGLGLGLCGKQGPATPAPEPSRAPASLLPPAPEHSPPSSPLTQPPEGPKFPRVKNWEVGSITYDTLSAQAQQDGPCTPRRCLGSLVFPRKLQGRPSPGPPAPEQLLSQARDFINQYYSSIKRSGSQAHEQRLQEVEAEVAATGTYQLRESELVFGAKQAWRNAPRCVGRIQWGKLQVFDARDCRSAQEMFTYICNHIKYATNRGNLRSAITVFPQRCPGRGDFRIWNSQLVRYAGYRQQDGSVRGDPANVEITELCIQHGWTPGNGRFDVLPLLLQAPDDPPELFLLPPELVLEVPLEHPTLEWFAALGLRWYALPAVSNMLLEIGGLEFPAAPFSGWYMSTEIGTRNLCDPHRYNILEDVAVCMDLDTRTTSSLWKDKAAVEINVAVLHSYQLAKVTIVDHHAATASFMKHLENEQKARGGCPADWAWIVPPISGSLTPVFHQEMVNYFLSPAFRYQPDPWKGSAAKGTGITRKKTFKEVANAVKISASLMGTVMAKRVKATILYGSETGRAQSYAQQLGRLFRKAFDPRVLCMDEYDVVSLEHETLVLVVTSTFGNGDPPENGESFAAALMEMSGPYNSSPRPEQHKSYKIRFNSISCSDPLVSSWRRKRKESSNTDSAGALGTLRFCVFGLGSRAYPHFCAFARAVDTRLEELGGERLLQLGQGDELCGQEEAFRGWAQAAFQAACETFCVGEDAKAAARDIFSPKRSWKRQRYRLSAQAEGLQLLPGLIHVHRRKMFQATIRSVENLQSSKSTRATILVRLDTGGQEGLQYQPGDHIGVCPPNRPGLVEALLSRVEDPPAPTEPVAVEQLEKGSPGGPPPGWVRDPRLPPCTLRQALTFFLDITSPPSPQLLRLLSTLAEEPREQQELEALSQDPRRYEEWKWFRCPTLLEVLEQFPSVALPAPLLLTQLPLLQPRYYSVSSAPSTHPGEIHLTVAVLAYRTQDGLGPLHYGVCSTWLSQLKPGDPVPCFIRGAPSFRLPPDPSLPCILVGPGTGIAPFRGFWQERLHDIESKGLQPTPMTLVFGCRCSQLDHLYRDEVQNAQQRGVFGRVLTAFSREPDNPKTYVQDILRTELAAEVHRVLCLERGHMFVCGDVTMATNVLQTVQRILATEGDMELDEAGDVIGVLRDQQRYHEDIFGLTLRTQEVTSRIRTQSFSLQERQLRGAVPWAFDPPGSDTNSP

Row | SMILES | IC50 (Nitric oxide synthase 1) | IC50 (Nitric oxide synthase 3) | Ratio IC50 [1] | metabolised at 20 min [2]
1 | N=C(Nc1cccc(C2(O)CCN(C(=O)OCc3ccccc3)CC2)c1)c1cccs1 | 0.376 µM | 60.1 µM | 159 | 77%
2 | CCCS(=O)(=O)N1CCC(O)(c2cccc(NC(=N)c3cccs3)c2)CC1 | 0.706 µM | 18.2 µM | 26 | 25%
3 | CCCCNC(=O)N1CCC(O)(c2cccc(NC(=N)c3cccs3)c2)CC1 | 0.694 µM | 10 µM | 14 | 54%
4 | N=C(Nc1cccc(C2(O)CCN(CCc3ccc(Cl)c(Cl)c3)CC2)c1)c1cccs1 | 0.017 µM | 28.3 µM | 1660 | 32%
5 | CC(C)S(=O)(=O)N1CCC(O)(c2cccc(NC(=N)c3cccs3)c2)CC1 | 0.551 µM | 23 µM | 42 | 16%
6 | N=C(Nc1cccc(C2(O)CCN(CCc3cccc(Cl)c3)CC2)c1)c1cccs1 | 0.131 µM | 57.5 µM | 438 | 39%
7 | N=C(Nc1cccc(C2(O)CCN(CCc3cccc(Cl)c3Cl)CC2)c1)c1cccs1 | 0.129 µM | 100 µM | 775 | 23%

Reference: ChEMBL document CHEMBL3217688, “Structure-based design, synthesis, and profiling of potent and selective neuronal nitric oxide synthase (nNOS) inhibitors with an amidinothiophene hydroxypiperidine scaffold” (Medchemcomm, 2011)
